Measured values: ChEMBL document CHEMBL4270584, “In silico fragment-based drug design with SEED” (Eur J Med Chem, 2018)
One block for each molecule: values may come before it.

Tests used:
Beta-secretase 1 = Beta-secretase 1 (Homo sapiens, UniProt P56817); assay: Inhibition of human BACE-1 after 30 mins by FRET assay
[1] = molecular target: T1, Bromodomain-containing protein 4 (Homo sapiens, UniProt O60885); assay: Binding affinity to human BRD4 bromodomain-1
[2] = molecular target: T2, ATPase family AAA domain-containing protein 2 (Homo sapiens, UniProt Q6PL18); assay: Inhibition of H4K5/8/12/16-Ac-biotin binding to human ATAD2 by Alpha screen assay
T2 sequence (Q6PL18 whole entry): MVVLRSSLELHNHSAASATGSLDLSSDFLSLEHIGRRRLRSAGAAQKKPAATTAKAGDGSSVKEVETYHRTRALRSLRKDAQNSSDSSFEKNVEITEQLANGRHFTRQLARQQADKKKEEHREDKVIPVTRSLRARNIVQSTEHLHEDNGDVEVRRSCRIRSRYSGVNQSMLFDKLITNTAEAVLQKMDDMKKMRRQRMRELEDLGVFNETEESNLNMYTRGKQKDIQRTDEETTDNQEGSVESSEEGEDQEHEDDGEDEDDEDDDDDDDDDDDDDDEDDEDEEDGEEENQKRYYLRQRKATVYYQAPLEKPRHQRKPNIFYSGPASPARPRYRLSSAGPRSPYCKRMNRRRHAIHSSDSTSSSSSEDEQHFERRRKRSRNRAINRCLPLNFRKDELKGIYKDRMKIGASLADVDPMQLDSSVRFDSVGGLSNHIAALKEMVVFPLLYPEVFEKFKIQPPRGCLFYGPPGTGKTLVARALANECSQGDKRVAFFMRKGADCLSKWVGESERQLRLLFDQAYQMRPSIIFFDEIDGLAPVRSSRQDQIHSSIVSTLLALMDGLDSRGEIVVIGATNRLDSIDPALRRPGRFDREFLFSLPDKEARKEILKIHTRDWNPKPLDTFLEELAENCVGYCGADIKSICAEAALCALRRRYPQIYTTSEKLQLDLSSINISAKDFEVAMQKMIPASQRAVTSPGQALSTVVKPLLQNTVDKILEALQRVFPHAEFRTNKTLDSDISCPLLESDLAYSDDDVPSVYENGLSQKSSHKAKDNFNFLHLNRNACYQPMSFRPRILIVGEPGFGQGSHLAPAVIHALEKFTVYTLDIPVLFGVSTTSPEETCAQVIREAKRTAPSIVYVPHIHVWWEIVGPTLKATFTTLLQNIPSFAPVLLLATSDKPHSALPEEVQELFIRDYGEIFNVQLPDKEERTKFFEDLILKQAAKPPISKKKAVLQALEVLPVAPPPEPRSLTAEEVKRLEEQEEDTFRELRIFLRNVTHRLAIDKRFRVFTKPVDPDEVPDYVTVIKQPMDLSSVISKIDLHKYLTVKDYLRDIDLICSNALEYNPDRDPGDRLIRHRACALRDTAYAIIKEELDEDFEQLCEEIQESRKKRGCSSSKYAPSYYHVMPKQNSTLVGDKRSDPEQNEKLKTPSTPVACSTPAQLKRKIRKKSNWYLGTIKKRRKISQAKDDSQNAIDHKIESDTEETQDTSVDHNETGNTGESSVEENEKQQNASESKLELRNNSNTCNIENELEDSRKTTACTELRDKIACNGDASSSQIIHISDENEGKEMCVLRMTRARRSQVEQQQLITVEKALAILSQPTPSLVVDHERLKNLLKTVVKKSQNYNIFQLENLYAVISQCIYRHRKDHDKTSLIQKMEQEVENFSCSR

[3] = molecular target: T1, Bromodomain-containing protein 4; assay: Inhibition of H4K5/8/12/16-Ac-biotin binding to human BRD4 bromodomain-1 by Alpha screen assay
[4] = molecular target: T3, 3-dehydroquinate dehydratase (Helicobacter pylori (strain ATCC 700392 / 26695) (Campylobacterpylori), UniProt Q48255); assay: Inhibition of Helicobacter pylori DHQ2
T3 sequence (Q48255 whole entry): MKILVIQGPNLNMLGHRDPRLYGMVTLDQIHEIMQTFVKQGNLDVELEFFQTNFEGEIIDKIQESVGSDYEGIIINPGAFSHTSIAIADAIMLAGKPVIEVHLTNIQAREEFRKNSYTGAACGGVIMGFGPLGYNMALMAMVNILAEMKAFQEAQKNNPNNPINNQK

CREB-binding protein = CREB-binding protein (Homo sapiens, UniProt Q92793); assay: Inhibition of H4K5/8/12/16-Ac-biotin binding to human CREBBP by Alpha screen assay
Chain of CREB-binding protein (Q92793 whole entry): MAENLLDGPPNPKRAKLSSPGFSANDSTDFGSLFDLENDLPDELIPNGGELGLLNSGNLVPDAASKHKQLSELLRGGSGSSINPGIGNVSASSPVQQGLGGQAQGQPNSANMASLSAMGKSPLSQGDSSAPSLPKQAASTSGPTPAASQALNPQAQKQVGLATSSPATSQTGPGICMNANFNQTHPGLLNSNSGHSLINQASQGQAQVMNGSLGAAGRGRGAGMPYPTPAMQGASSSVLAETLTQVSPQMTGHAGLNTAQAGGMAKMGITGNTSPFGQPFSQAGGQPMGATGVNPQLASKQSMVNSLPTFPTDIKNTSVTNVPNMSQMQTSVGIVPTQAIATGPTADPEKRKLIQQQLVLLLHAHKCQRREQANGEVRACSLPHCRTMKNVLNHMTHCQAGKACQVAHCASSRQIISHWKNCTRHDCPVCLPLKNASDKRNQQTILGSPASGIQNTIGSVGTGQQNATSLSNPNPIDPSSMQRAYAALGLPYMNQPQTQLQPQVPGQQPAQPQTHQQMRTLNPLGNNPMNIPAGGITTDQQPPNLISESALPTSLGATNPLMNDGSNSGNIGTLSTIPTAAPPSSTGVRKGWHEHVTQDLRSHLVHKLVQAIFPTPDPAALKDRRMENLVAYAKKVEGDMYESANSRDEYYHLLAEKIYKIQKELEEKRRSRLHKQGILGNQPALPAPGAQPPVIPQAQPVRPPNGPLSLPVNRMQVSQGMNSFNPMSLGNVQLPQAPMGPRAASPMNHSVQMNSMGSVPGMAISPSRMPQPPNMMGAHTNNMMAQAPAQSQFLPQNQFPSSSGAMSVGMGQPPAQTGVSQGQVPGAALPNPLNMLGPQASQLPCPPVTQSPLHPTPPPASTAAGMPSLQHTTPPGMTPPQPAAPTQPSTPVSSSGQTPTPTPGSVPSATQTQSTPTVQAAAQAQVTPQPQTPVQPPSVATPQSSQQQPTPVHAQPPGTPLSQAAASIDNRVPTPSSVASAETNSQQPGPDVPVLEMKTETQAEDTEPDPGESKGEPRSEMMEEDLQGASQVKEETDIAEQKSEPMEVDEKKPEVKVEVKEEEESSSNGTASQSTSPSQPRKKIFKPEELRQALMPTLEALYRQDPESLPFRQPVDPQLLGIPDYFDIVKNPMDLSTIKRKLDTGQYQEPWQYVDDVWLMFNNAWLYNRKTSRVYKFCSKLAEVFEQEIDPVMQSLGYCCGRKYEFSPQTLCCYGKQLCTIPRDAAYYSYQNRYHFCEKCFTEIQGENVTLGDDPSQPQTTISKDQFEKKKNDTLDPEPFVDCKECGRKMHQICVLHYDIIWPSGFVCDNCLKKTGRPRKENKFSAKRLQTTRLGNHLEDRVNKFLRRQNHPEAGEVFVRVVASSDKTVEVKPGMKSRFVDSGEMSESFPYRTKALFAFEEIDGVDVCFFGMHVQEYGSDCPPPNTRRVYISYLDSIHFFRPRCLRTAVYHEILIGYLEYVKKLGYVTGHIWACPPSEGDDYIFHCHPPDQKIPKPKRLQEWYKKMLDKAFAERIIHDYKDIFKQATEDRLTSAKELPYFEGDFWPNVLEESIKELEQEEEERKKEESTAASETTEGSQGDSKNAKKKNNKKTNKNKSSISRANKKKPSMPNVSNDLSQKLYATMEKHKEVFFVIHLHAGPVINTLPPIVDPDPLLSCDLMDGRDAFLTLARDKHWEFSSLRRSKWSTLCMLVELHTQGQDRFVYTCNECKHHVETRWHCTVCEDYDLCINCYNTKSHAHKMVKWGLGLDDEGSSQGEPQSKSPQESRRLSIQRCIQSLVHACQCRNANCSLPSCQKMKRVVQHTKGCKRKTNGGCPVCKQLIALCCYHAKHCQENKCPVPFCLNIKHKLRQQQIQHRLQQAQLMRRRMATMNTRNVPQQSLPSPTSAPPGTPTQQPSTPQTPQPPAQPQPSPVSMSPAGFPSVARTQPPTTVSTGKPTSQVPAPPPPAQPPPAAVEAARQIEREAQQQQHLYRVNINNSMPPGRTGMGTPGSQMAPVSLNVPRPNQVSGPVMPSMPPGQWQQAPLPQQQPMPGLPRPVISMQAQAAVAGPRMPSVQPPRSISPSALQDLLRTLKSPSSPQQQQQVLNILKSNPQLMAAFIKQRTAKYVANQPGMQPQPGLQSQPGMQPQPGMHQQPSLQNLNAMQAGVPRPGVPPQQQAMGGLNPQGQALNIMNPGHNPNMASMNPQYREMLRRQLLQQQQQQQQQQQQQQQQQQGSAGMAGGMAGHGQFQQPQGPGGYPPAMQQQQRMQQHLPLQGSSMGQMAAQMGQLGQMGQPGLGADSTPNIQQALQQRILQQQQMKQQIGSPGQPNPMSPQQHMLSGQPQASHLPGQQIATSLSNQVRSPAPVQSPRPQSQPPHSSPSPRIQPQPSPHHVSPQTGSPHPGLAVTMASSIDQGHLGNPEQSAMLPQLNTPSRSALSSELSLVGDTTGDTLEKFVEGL

Chain of Beta-secretase 1 (P56817 whole entry): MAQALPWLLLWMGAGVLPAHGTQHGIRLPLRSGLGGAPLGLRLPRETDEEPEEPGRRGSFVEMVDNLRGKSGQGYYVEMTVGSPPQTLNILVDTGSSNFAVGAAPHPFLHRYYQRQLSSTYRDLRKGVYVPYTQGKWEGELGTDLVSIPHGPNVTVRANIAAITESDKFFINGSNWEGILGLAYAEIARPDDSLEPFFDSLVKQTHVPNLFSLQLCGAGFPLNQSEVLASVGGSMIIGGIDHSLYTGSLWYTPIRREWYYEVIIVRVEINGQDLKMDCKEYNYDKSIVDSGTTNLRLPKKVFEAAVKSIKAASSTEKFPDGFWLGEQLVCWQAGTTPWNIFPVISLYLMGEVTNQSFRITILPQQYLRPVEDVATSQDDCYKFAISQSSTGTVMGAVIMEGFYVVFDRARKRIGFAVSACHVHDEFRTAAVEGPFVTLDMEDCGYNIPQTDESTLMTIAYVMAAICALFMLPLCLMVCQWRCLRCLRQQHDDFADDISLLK

Structure (SMILES): Cc1ccc(OCCCC(=O)Nc2nc(C)c(C)s2)cc1
IC50 [2]: 23 µM

Structure (SMILES): CC(C)[C@H](NC(=O)CCCn1c(=O)[nH]c2ccccc2c1=O)C(=O)O
Ki [4]: 19 µM

Structure (SMILES): O=C1CNCC(C(=O)NCCn2nc(-c3ccccc3)ccc2=O)N1 (stereo unspecified)
IC50 (CREB-binding protein): 55 µM

Other lines, results leading:

IC50 (Beta-secretase 1): 7 µM
Structure (SMILES): O=C(O)c1cc(-c2ccc(/C=N/Nc3nc(Nc4ccc(F)cc4)nc(N4CCOCC4)n3)o2)ccc1Cl

Kd [1]: 7 µM
Structure (SMILES): CC(=O)N(C)c1cccc(-c2ccc3nnc(C)n3n2)c1

IC50 [3]: 22 µM
Structure (SMILES): COc1cc(/C=C2\SC(=O)N=C2N)ccc1O
